Data from ChEMBL document CHEMBL4765295, “Synthesis, pharmacological profile and 2D-QSAR studies of curcumin-amino acid conjugates as potential drug candidates” (Eur J Med Chem, 2020).
“And” between values parts separate entries of the source, which are not always exact repeats. Identical values can stand only once.

How the values were obtained:
Mus musculus [1] = assay: Analgesic activity in albino mouse assessed protection against acetic acid-induced abdominal writhing at 10 mg/kg, ip pretreated for 1 hr followed by acetic acid challenge and measured starting 5 mins post acetic acid challenge for 10 mins relative to indomethacin; type: functional; settings: time 75 min, 1.25 h
Rattus norvegicus [2] = assay: Antiinflammatory activity in Wistar rat model of carrageenan-induced paw edema assessed as reduction in thickness of paw edema at 10 mg/kg, ip pretreated for 1 hr followed by carrageenan challenge and measured after 24 hrs (reference value: 0.83 +/-0.08 mm); type: functional; settings: time 25 hrs
Rattus norvegicus [3] = assay: Antiinflammatory activity in Wistar rat model of carrageenan-induced paw edema assessed as reduction in thickness of paw edema at 10 mg/kg, ip pretreated for 1 hr followed by carrageenan challenge and measured after 1 hr (reference value: 2.41 +/-0.05 mm); type: functional; settings: time 1 hr after carrageenan
[4] = Ulcerogenic activity in fasted albino mouse assessed as ulcer index in gastric mucosa at 10 mg/kg, po for 3 days (reference value: 0); type: toxicity, organism-based; settings: in vivo, 72 h, time 3 day
Rattus norvegicus [5] = assay: Antiinflammatory activity in Wistar rat model of carrageenan-induced paw edema assessed as reduction in thickness of paw edema at 10 mg/kg, ip pretreated for 1 hr followed by carrageenan challenge and measured after 3 hrs (reference value: 1.79 +/-0.07 mm); type: functional; settings: time 4 hrs
Salmonella typhimurium = assay: Antibacterial activity against Salmonella typhimurium ATCC 19430 incubated for 18 hrs by agar dilution assay; type: functional, Salmonella enterica subsp. enterica serovar Typhimurium; settings: Salmonella enterica
Rattus norvegicus [6] = assay: Anti-inflammatory activity in Wistar rat assessed as inhibition of carrageenan-induced paw edema at 10 mg/kg, ip pretreated for 1 hr followed by carrageenan challenge and measured after 24 hr relative to control (reference value: 0.00 +/-0.3 %); type: functional; settings: time 25 hrs
Mus musculus [7] = assay: Analgesic activity in albino mouse assessed as protection at 10 mg/kg, ip measured after 120 mins by hot plate test relative to indomethacin; type: functional; settings: 2 h
Splenocyte [8] = assay: Immunomodulatory activity in Swiss albino mouse splenocytes assessed as cell viability at 10 uM by measuring inhibition of stimulation index incubated for 72 hrs in presence of mitogenic stimulus phytohaemagglutinin by MTT assay relative to indomethacin; type: functional; settings: read-out: Activity
Peritoneal macrophage [9] = assay: Antiinflammatory activity in […] mouse Peritoneal macrophages assessed as inhibition of LPS-induced NO production at 10 uM preincubated for 1 hr followed by LPS stimulation measured after 24 hrs by Griess method relative to control (reference value: 0.0 %); type: functional; design: scale not given: the % may be the effect or the level left; settings: time 25 hrs
Mus musculus [10] = assay: Analgesic activity in albino mouse assessed as forepaw licking/jumping latency time at 10 mg/kg, ip measured after 120 mins by hot plate test (reference value: 2.62 +/- 0.06 sec); type: functional; settings: 2 h
[11] = Toxicity in albino mouse assessed as induction of toxic symptoms at 50 to 100 mg/kg, ip measured after 24 hrs; type: organism-based; settings: in vivo, dose 50-100 mg/kg
Rattus norvegicus [12] = assay: Anti-inflammatory activity in Wistar rat assessed as inhibition of carrageenan-induced paw edema at 10 mg/kg, ip pretreated for 1 hr followed by carrageenan challenge and measured after 4 hr relative to control (reference value: 0.00 +/-0.4 %); type: functional; settings: time 5 hrs
Mus musculus [13] = assay: Analgesic activity in albino mouse assessed as protection at 10 mg/kg, ip measured after 120 mins by hot plate test (reference value: 0 %); type: functional; settings: 2 h
Mus musculus [14] = assay: Analgesic activity in albino mouse assessed as forepaw licking/jumping latency time at 10 mg/kg, ip measured after 30 mins by hot plate test (reference value: 5.02 +/- 0.09 sec); type: functional; settings: 0.5 h
Rattus norvegicus [15] = assay: Antiinflammatory activity in Wistar rat model of carrageenan-induced paw edema assessed as reduction in thickness of paw edema at 10 mg/kg, ip pretreated for 1 hr followed by carrageenan challenge and measured after 4 hrs (reference value: 1.40 +/-0.10 mm); type: functional; settings: time 5 hrs
Streptococcus pyogenes = assay: Antibacterial activity against Streptococcus pyogenes ATCC 19615 incubated for 18 hrs by agar dilution method; type: functional
Mus musculus [16] = assay: Analgesic activity in albino mouse assessed as forepaw licking/jumping latency time at 10 mg/kg, ip measured after 60 mins by hot plate test (reference value: 3.42 +/- 0.03 sec); type: functional; settings: 1 h
Rattus norvegicus [17] = assay: Anti-inflammatory activity in Wistar rat assessed as inhibition of carrageenan-induced paw edema at 10 mg/kg, ip pretreated for 1 hr followed by carrageenan challenge and measured after 2 hr relative to control (reference value: 0.00 +/-0.03 %); type: functional; settings: time 3 hrs
Mus musculus [18] = assay: Analgesic activity in albino mouse assessed as forepaw licking/jumping latency time at 10 mg/kg, ip measured after 90 mins by hot plate test (reference value: 2.72 +/- 0.01 sec); type: functional; settings: 1.5 h
Rattus norvegicus [19] = assay: Anti-inflammatory activity in Wistar rat assessed as inhibition of carrageenan-induced paw edema at 10 mg/kg, ip pretreated for 1 hr followed by carrageenan challenge and measured after 3 hr relative to control (reference value: 0.00 +/-0.1 %); type: functional; settings: time 4 hrs
Rattus norvegicus [20] = assay: Antiinflammatory activity in Wistar rat model of carrageenan-induced paw edema assessed as reduction in thickness of paw edema at 10 mg/kg, ip pretreated for 1 hr followed by carrageenan challenge and measured after 2 hrs (reference value: 2.06 +/-0.09 mm); type: functional; settings: time 3 hrs
Mus musculus [21] = assay: Analgesic activity in albino mouse assessed protection against acetic acid-induced abdominal writhing at 10 mg/kg, ip pretreated for 1 hr followed by acetic acid challenge and measured starting 5 mins post acetic acid challenge for 10 mins relative to control (reference value: 0 %); type: functional; settings: time 75 min, 1.25 h
Peritoneal macrophage [22] = assay: Antiinflammatory activity in […] mouse Peritoneal macrophages assessed as reduction in LPS-induced NO production by measuring reduction in stimulation index at 10 uM preincubated for 1 hr followed by LPS stimulation measured after 24 hrs by Griess method (reference value: 27.31 +/- 2.56 uM); type: functional; settings: time 25 hrs
Mus musculus [23] = assay: Analgesic activity in albino mouse assessed as protection at 10 mg/kg, ip measured after 60 mins by hot plate test (reference value: 0 %); type: functional; settings: 1 h
Mus musculus [24] = assay: Analgesic activity in albino mouse assessed reduction in acetic acid-induced abdominal writhing by measuring writing reflex at 10 mg/kg, ip pretreated for 1 hr followed by acetic acid challenge and measured starting 5 mins post acetic acid challenge for 10 mins (reference value: 42.4 +/- 1.02); type: functional; settings: time 75 min, 1.25 h
Rattus norvegicus [25] = assay: Anti-inflammatory activity in Wistar rat assessed as inhibition of carrageenan-induced paw edema at 10 mg/kg, ip pretreated for 1 hr followed by carrageenan challenge and measured after 1 hr relative to control (reference value: 0.00 +/-0.02 %); type: functional; settings: time 2 hrs
Candida albicans = assay: Antifungal activity against Candida albicans incubated for 18 to 24 hrs by CLSI method; type: functional; settings: time 18-24 hrs
Rattus norvegicus [26] = assay: Anti-inflammatory activity in Wistar rat assessed as inhibition of carrageenan-induced paw edema at 10 mg/kg, ip pretreated for 1 hr followed by carrageenan challenge and measured after 4 hr relative to indomethacin; type: functional; settings: time 5 hrs
Pseudomonas aeruginosa = assay: Antibacterial activity against Pseudomonas aeruginosa ATCC 27853 incubated for 18 hrs by agar dilution assay; type: functional
Staphylococcus aureus = assay: Antibacterial activity against Staphylococcus aureus ATCC 25923 incubated for 18 hrs by agar dilution method; type: functional
Mus musculus [27] = assay: Analgesic activity in albino mouse assessed as protection at 10 mg/kg, ip measured after 90 mins by hot plate test (reference value: 0 %); type: functional; settings: 1.5 h
Splenocyte [28] = assay: Immunomodulatory activity in Swiss albino mouse splenocytes assessed as cell viability at 10 uM by measuring stimulation index incubated for 72 hrs in presence of mitogenic stimulus phytohaemagglutinin by MTT assay (reference value: 1.00 +/- 0.24); type: functional
[29] = Ulcerogenic activity in fasted albino mouse assessed as incidence of gastric ulceration at 10 mg/kg, po for 3 days (reference value: 0 %); type: toxicity, organism-based; settings: in vivo, 72 h, time 3 day
[30] = Ulcerogenic activity in fasted albino mouse assessed as average number of ulcers in gastric mucosa at 10 mg/kg, po for 3 days (reference value: 0); type: toxicity, organism-based; settings: in vivo, 72 h, time 3 day
[31] = Ulcerogenic activity in fasted albino mouse assessed as average severity of ulcers in gastric mucosa at 10 mg/kg, po for 3 days (reference value: 0); type: toxicity, organism-based; settings: in vivo, 72 h, time 3 day
Mus musculus [32] = assay: Analgesic activity in albino mouse assessed as protection at 10 mg/kg, ip measured after 30 mins by hot plate test (reference value: 0 %); type: functional; settings: 0.5 h

Question: Which Activity (Mus musculus [1]) does the source give for `COc1cc(/C=C/C(=O)/C=C(O)/C=C/c2ccc(OC(=O)[C@H](CCSC)NC(=O)OCC3c4ccccc4-c4ccccc43)c(OC)c2)ccc1OC(=O)[C@H](CCSC)NC(=O)OCC1c2ccccc2-c2ccccc21` here?
Answer: 100.3%

Question: What about the Activity (Rattus norvegicus [2]) of the same compound?
Answer: 0.64 mm

Question: And the Activity (Rattus norvegicus [3])?
Answer: 1.3 mm

Question: And the UI [4]?
Answer: 0

Question: What about the Activity (Rattus norvegicus [5]) of the same compound?
Answer: 0.45 mm

Question: And the MIC (Salmonella typhimurium)?
Answer: 2 µg/mL and 1.86 µM

Question: What about the inhibition in vivo at 10 mg/kg (Rattus norvegicus [6]) of the same compound?
Answer: 23%

Question: And the Activity (Mus musculus [7])?
Answer: 32.6%

Question: What about the viability at 10 µM (Splenocyte [8]) of the same compound?
Answer: 113%

Question: And the Activity (Peritoneal macrophage [9])?
Answer: 47.91%

Question: And the Time (Mus musculus [10])?
Answer: 2.98 s

Question: And the Activity [11]?
Answer: Non-Toxic

Question: And the inhibition in vivo at 10 mg/kg (Rattus norvegicus [12])?
Answer: 98%

Question: And the Activity (Mus musculus [13])?
Answer: 13.7%

Question: What about the Time (Mus musculus [14]) of the same compound?
Answer: 6.82 s

Question: And the Activity (Rattus norvegicus [15])?
Answer: 0.03 mm

Question: What about the MIC (Streptococcus pyogenes) of the same compound?
Answer: 0.125 µg/mL and 0.116 µM

Question: What about the Time (Mus musculus [16]) of the same compound?
Answer: 5.02 s

Question: And the inhibition in vivo at 10 mg/kg (Rattus norvegicus [17])?
Answer: 73%

Question: And the Time (Mus musculus [18])?
Answer: 3.38 s

Question: What about the inhibition in vivo at 10 mg/kg (Rattus norvegicus [19]) of the same compound?
Answer: 75%

Question: What about the Activity (Rattus norvegicus [20]) of the same compound?
Answer: 0.56 mm

Question: And the Activity (Mus musculus [21])?
Answer: 61.8%

Question: What about the Activity (Peritoneal macrophage [22]) of the same compound?
Answer: 14.23 µM

Question: What about the Activity (Mus musculus [23]) of the same compound?
Answer: 46.8%

Question: What about the Activity (Mus musculus [24]) of the same compound?
Answer: 16.2

Question: What about the inhibition in vivo at 10 mg/kg (Rattus norvegicus [25]) of the same compound?
Answer: 46%

Question: What about the MIC (Candida albicans) of the same compound?
Answer: 0.5 µg/mL and 0.465 µM

Question: And the inhibition in vivo at 10 mg/kg (Rattus norvegicus [26])?
Answer: 113%

Question: And the MIC (Pseudomonas aeruginosa)?
Answer: 2 µg/mL and 1.86 µM

Question: What about the MIC (Staphylococcus aureus) of the same compound?
Answer: 0.25 µg/mL and 0.233 µM

Question: And the Activity (Mus musculus [27])?
Answer: 24.3%

Question: And the Activity_index (Splenocyte [28])?
Answer: 1.07

Question: What about the Activity [29] of the same compound?
Answer: 0%

Question: What about the Activity [30] of the same compound?
Answer: 0

Question: What about the Activity [31] of the same compound?
Answer: 0

Question: And the Activity (Mus musculus [32])?
Answer: 35.9%

Question: Which results are given for `COc1cc(/C=C/C(=O)/C=C(O)/C=C/c2ccc(OC(=O)[C@@H](CCSC)NC(=O)OCc3ccccc3)c(OC)c2)ccc1OC(=O)[C@@H](CCSC)NC(=O)OCc1ccccc1`?
Answer: Activity (Mus musculus [1]): 29.1%; Activity (Rattus norvegicus [2]): 0.08 mm; Activity (Rattus norvegicus [3]): 0.51 mm; UI [4]: 0; Activity (Rattus norvegicus [5]): 0.27 mm; MIC (Salmonella typhimurium): 0.5 µg/mL and 0.556 µM; inhibition in vivo at 10 mg/kg (Rattus norvegicus [6]): 90%; Activity (Mus musculus [7]): 187.1%; viability at 10 µM (Splenocyte [8]): 88.5%; Activity (Peritoneal macrophage [9]): 40.84%; Time (Mus musculus [10]): 4.68 s; Activity [11]: Non-Toxic; inhibition in vivo at 10 mg/kg (Rattus norvegicus [12]): 94%; Activity (Mus musculus [13]): 78.6%; Time (Mus musculus [14]): 5.48 s; Activity (Rattus norvegicus [15]): 0.08 mm; MIC (Streptococcus pyogenes): 0.125 µg/mL and 0.139 µM; Time (Mus musculus [16]): 5.44 s; inhibition in vivo at 10 mg/kg (Rattus norvegicus [17]): 80%; Time (Mus musculus [18]): 4.88 s; inhibition in vivo at 10 mg/kg (Rattus norvegicus [19]): 85%; Activity (Rattus norvegicus [20]): 0.41 mm; Activity (Mus musculus [21]): 17.9%; Activity (Peritoneal macrophage [22]): 16.16 µM; Activity (Mus musculus [23]): 59.1%; Activity (Mus musculus [24]): 34.8; inhibition in vivo at 10 mg/kg (Rattus norvegicus [25]): 79%; MIC (Candida albicans): 0.125 µg/mL and 0.139 µM; inhibition in vivo at 10 mg/kg (Rattus norvegicus [26]): 108%; MIC (Pseudomonas aeruginosa): 1 µg/mL and 1.11 µM; MIC (Staphylococcus aureus): 0.125 µg/mL and 0.139 µM; Activity (Mus musculus [27]): 79.4%; Activity_index (Splenocyte [28]): 1.37; Activity [29]: 0%; Activity [30]: 0; Activity [31]: 0; Activity (Mus musculus [32]): 9.2%
